Experimental data taken from ChEMBL document CHEMBL3612016, “1,4-Disubstituted aromatic piperazines with high 5-HT2A/D2 selectivity: Quantitative structure-selectivity investigations, docking, synthesis and biological evaluation” (Bioorg Med Chem, 2015).

Columns and labels:
[1] = target: 5-hydroxytryptamine receptor 2A (Homo sapiens, UniProt P28223); assay: biochemical; format: cell-based, HEK293
Description: Displacement of [3H]ketanserin from human 5-HT2A receptor expressed in HEK293 cell membranes by radioligand competition binding assay

D(2) dopamine receptor [2] = target: T1, D(2) dopamine receptor (Homo sapiens, UniProt P14416); assay: biochemical; format: cell-based, CHO
T1 sequence (P14416 whole entry): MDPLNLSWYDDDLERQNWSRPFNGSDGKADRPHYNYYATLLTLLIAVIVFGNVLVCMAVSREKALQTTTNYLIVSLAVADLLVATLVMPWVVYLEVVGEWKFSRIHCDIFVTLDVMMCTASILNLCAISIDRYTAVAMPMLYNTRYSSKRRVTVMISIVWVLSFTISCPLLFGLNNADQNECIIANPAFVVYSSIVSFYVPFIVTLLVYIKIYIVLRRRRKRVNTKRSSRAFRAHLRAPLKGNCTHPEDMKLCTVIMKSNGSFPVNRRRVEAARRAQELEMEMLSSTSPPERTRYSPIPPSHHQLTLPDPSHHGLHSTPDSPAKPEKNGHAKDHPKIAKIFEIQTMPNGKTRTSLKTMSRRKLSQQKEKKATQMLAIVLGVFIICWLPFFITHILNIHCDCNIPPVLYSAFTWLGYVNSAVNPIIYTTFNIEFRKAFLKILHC
Description: Displacement of [3H]spiperone from human dopamine D2L receptor expressed in CHO cell membranes by radioligand competition binding assay

D(2) dopamine receptor [3] = target: T1, D(2) dopamine receptor; format: cell-based; conditions: hek293
Description: Activity at pro-link-tagged D2S-ARMS2PK2 (unknown origin) expressed in HEK293 cells by beta-arrestin-2 recruitment assay

D(4) dopamine receptor = target: T2, D(4) dopamine receptor (Homo sapiens, UniProt P21917); assay: biochemical; format: cell-based, CHO
T2 sequence (P21917 whole entry): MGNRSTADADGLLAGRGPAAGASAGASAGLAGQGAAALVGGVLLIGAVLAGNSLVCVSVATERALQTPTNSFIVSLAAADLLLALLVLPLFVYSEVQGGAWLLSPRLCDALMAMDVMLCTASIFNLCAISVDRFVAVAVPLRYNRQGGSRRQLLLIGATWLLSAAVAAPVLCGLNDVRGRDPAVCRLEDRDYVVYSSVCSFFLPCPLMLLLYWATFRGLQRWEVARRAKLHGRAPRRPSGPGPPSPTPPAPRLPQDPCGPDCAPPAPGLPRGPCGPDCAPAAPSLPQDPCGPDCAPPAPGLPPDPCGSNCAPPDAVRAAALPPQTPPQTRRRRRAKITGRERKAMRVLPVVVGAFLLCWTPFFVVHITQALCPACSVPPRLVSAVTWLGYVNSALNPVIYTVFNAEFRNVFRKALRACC
Description: Displacement of [3H]spiperone from human dopamine D4.4 receptor expressed in CHO cell membranes by radioligand competition binding assay

D(2) dopamine receptor [4] = target: T1, D(2) dopamine receptor; assay: biochemical; format: cell-based, CHO; remark: listed apart in the source
Description: Displacement of [3H]spiperone from human dopamine D2S receptor expressed in CHO cell membranes by radioligand competition binding assay

D(2) dopamine receptor [5] = target: T1, D(2) dopamine receptor; format: functional, cell-based, HEK293
D(1A) dopamine receptor = D(1A) dopamine receptor (Homo sapiens, UniProt P21728); assay: biochemical; format: cell-based, CHO
Sequence of D(1A) dopamine receptor (P21728 whole entry): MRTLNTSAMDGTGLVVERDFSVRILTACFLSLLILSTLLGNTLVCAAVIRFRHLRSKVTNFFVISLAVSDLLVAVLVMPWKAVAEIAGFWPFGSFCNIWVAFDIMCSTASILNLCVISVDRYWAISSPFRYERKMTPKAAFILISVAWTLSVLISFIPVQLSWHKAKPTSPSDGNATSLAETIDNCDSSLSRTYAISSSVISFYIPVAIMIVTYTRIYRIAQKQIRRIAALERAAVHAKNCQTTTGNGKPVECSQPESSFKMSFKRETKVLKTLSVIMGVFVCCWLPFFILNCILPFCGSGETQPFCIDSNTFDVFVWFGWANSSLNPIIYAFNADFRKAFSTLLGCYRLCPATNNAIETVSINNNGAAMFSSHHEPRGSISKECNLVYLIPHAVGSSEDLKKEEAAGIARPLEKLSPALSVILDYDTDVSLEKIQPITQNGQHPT
Description: Displacement of [3H]SCH23990 from human dopamine D1 receptor expressed in CHO cell membranes by radioligand competition binding assay

D(3) dopamine receptor = D(3) dopamine receptor (Homo sapiens, UniProt P35462); assay: biochemical; format: cell-based, CHO
Sequence of D(3) dopamine receptor (P35462 whole entry): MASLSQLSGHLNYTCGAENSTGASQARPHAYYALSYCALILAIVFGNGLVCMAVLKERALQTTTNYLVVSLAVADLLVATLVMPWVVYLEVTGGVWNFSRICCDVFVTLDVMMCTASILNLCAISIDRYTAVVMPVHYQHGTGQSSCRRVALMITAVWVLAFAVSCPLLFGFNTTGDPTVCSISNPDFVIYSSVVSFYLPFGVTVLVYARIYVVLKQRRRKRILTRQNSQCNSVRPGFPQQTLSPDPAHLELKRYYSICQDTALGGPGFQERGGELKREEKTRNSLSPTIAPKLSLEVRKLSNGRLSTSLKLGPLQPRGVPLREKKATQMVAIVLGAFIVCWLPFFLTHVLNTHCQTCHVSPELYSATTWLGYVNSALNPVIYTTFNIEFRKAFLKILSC
Description: Displacement of [3H]spiperone from human dopamine D3 receptor expressed in CHO cell membranes by radioligand competition binding assay

D(2) dopamine receptor [6] = target: T1, D(2) dopamine receptor
Description: Activity at dopamine D2S receptor (unknown origin) expressed in HEK293 cell membranes co-expressing Galpha protein subunit Galphai2 by [35S]GTPgammaS binding assay

Sequence of 5-hydroxytryptamine receptor 2A (P28223 whole entry): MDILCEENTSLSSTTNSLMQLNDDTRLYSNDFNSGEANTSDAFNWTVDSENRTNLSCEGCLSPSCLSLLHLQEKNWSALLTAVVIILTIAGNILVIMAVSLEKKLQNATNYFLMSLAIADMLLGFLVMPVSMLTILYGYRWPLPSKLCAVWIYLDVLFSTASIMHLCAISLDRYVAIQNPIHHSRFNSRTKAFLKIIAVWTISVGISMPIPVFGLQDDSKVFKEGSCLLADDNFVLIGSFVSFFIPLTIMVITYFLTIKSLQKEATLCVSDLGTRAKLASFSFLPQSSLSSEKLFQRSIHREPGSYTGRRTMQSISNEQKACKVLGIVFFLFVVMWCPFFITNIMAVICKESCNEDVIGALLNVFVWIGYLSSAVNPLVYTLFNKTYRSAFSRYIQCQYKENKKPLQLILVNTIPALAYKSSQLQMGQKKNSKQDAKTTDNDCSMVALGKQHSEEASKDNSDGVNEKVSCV

| Compound | Ki [1] | Ki (D(2) dopamine receptor [2]) | EC50 (D(2) dopamine receptor [3]) | Ki (D(4) dopamine receptor) | Ki (D(2) dopamine receptor [4]) | EC50 (D(2) dopamine receptor [5]) | Ki (D(1A) dopamine receptor) | Ki (D(3) dopamine receptor) | EC50 (D(2) dopamine receptor [6]) |
| --- | --- | --- | --- | --- | --- | --- | --- | --- | --- |
| COc1ccccc1N1CCN(CCCCCNC(=O)c2cnn3ccccc23)CC1 | 130 nM |  |  |  |  |  |  |  |  |
| COc1ccccc1N1CCN(CCNC(=O)c2cnn3ccccc23)CC1 | 580 nM |  |  |  |  |  |  |  |  |
| COc1ccccc1N1CCN(CCCCCNC(=O)c2nnn(Cc3ccccc3Br)c2C)CC1 | 41 nM | 0.58 nM |  |  |  |  |  |  |  |
| CCCc1c(C(=O)NCCCCN2CCN(c3ccccc3OC)CC2)nnn1Cc1ccc(OC)cc1 | 29 nM | 7.1 nM |  |  |  |  |  |  |  |
| COc1ccc(Cn2nnc(C(=O)NCCCCCN3CCN(c4ccccc4OC)CC3)c2C)cc1 | 93 nM | 2.7 nM |  |  |  |  |  |  |  |
| CCCc1c(C(=O)NCCCCCN2CCN(c3ccccc3OC)CC2)nnn1Cc1ccccc1Br | 62 nM | 0.91 nM |  |  |  |  |  |  |  |
| COc1ccccc1N1CCN(CCCCCNC(=O)c2nnn(Cc3ccccc3)c2C)CC1 | 140 nM | 2.5 nM |  |  |  |  |  |  |  |
| COc1ccccc1N1CCN(CCCc2cn(-c3ccn4nccc4c3)nn2)CC1 | 84 nM | 140 nM | Not Active | 37 nM | 81 nM | 977 nM | 1700 nM | 77 nM |  |
| O=Cc1cnn2ccc(-n3cc(CCCN4CCN(c5cccc(Cl)c5Cl)CC4)nn3)cc12 | 6.9 nM | 6.7 nM | Not Active | 130 nM | 3.8 nM | 191 nM | 210 nM | 12 nM | 955 nM |
| O=Cc1cnn2ccc(-n3cc(CCCCN4CCN(c5cccc(Cl)c5Cl)CC4)nn3)cc12 | 15 nM | 110 nM | Not Active | 1400 nM | 51 nM | 692 nM | 1500 nM | 4.4 nM | 1860 nM |
| COc1ccccc1N1CCN(CCc2cn(-c3ccn4ncc(C=O)c4c3)nn2)CC1 | 89 nM | 18 nM | Not Active | 98 nM | 9.4 nM | 550 nM | 620 nM | 8.5 nM | 4370 nM |
| Clc1cccc(N2CCN(CCCCc3cn(-c4ccn5nccc5c4)nn3)CC2)c1Cl | 0.64 nM | 23 nM | Not Active | 76 nM | 7.3 nM | 741 nM | 110 nM | 0.31 nM |  |
| Cc1c(C(=O)NCCCCN2CCN(c3cccc(Cl)c3Cl)CC2)nnn1Cc1ccccc1 | 7.4 nM | 14 nM |  |  |  |  |  |  |  |
| COc1ccccc1N1CCN(CCCCNC(=O)c2nnn(Cc3ccccc3Br)c2C)CC1 | 150 nM | 17 nM |  |  |  |  |  |  |  |
| CCCc1c(C(=O)NCCCCN2CCN(c3ccccc3OC)CC2)nnn1Cc1ccccc1Br | 44 nM | 3 nM |  |  |  |  |  |  |  |
| COc1ccc(Cn2nnc(C(=O)NCCCCN3CCN(c4ccccc4OC)CC3)c2C)cc1 | 140 nM |  |  |  |  |  |  |  |  |

More lines, in order of falling Ki [1], values ahead:

| Ki [1] | Ki (D(2) dopamine receptor [2]) | EC50 (D(2) dopamine receptor [3]) | Ki (D(4) dopamine receptor) | Ki (D(2) dopamine receptor [4]) | EC50 (D(2) dopamine receptor [5]) | Ki (D(1A) dopamine receptor) | Ki (D(3) dopamine receptor) | EC50 (D(2) dopamine receptor [6]) | Compound |
| --- | --- | --- | --- | --- | --- | --- | --- | --- | --- |
| 620 nM | 35 nM |  |  |  |  |  |  |  | COc1ccccc1N1CCN(CCCCNC(=O)c2nnn(Cc3ccccc3)c2C)CC1 |
| 560 nM |  |  |  |  |  |  |  |  | COc1ccccc1N1CCN(CCCNC(=O)c2cc3ccccn3n2)CC1 |
| 220 nM |  |  |  |  |  |  |  |  | COc1ccccc1N1CCN(CCCCCNC(=O)c2cc3ccccn3n2)CC1 |
| 110 nM | 6.4 nM |  |  |  |  |  |  |  | CCCc1c(C(=O)NCCCCN2CCN(c3ccccc3OC)CC2)nnn1Cc1ccccc1 |
| 50 nM | 11 nM | Not Active | 3000 nM | 8 nM | 200 nM | 160 nM | 32 nM | 3550 nM | O=Cc1cnn2ccc(-n3cc(CCN4CCN(c5cccc(Cl)c5Cl)CC4)nn3)cc12 |
| 31 nM |  |  |  |  |  |  |  |  | O=C(NCCCCN1CCN(c2cccc(Cl)c2Cl)CC1)c1cc2ccccc2[nH]1 |
| 7.1 nM | 22 nM | Not Active | 180 nM | 10 nM | 479 nM | 120 nM | 2.2 nM | 1100 nM | Clc1cccc(N2CCN(CCc3cn(-c4ccn5nccc5c4)nn3)CC2)c1Cl |
| 5.3 nM | 130 nM | Not Active | 42 nM | 54 nM | 1120 nM | 110 nM | 8.5 nM |  | Clc1cccc(N2CCN(CCCc3cn(-c4ccn5nccc5c4)nn3)CC2)c1Cl |
| 3.2 nM | 1.5 nM |  |  |  |  |  |  |  | COc1ccc(Cn2nnc(C(=O)NCCCCCN3CCN(c4cccc(Cl)c4Cl)CC3)c2C)cc1 |
| 2.5 nM | 6.4 nM |  |  |  |  |  |  |  | CCCc1c(C(=O)NCCCCN2CCN(c3cccc(Cl)c3Cl)CC2)nnn1Cc1ccccc1 |
